Measurements reported in US9394297B2, “Amides as pim inhibitors” (AMGEN INC., priority 2012, dated 2016).
Read-outs that look alike come from different tables or passages of the source.

Columns and labels:
Pim-1 = Pim-1 (Homo sapiens (Human), UniProt P11309); test: Pim-Mn enzyme assay (HTRF, 384-well), Pim-1; type: biochemical; conditions: read-out: Pim-1-Mn IC50 IP
Pim-2 = Pim-2 (Homo sapiens (Human), UniProt Q9P1W9); test: Pim-Mn enzyme assay (HTRF, 384-well), Pim-2; type: biochemical; conditions: read-out: Pim-2-Mn IC50 IP
Pim-2, sequence (Q9P1W9 whole entry): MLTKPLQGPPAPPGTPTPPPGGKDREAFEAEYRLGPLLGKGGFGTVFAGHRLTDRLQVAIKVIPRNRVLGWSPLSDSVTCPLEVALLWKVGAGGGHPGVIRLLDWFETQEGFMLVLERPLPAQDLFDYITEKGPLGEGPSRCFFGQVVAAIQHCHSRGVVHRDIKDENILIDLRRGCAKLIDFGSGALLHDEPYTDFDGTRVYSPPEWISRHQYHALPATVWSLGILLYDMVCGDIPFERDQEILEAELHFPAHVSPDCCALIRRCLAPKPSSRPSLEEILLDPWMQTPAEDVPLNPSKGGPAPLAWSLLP

[1] = Pim-1 enzyme 5 pM, ATP 1.5 μM, BAD (S112) 0.5 μM, HTRF, 22-point curve
[2] = Pim-2 enzyme 0.5 pM, ATP 1.5 μM, BAD (S112) 0.5 μM, HTRF, 22-point curve

Pim-1, sequence (P11309 whole entry): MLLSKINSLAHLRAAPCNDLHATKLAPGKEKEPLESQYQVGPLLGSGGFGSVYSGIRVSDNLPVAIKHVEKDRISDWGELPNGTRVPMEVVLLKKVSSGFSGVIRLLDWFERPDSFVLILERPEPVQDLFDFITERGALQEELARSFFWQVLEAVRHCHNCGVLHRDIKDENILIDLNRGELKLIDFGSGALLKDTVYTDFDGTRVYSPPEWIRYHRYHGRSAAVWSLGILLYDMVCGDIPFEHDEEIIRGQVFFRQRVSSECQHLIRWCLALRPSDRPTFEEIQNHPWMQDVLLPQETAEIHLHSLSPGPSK

SMILES	IC50 (Pim-1; [1]) [nM]	IC50 (Pim-2; [2]) [nM]	IC50 (Pim-1) [nM]	IC50 (Pim-2) [nM]
Cn1c(NC(C)(C)C)nc2c(-c3cc4c([nH]3)[C@@H](CCN)NC4=O)cccc2c1=O [Example 504, (R)-8-(6-(2-aminoethyl)-4-oxo-1,4,5,6-tetrahydropyrrolo[3,4-b]pyrrol-2-yl)-2-(tert-butylamino)-3-methylquinazolin-4(3H)-one]	0.04	0.02	–	–
Cc1nc2cccc(-c3cc4c([nH]3)CCNC4=O)c2nc1NS(C)(=O)=O [Example 240, N-(3-methyl-8-(4-oxo-4,5,6,7-tetrahydro-1H-pyrrolo[3,2-c]pyridin-2-yl)quinoxalin-2-yl)methanesulfonamide 2,2,2-trifluoroacetate]	–	–	87.5	9.6
Cc1nc2cccc(-c3cc4c([nH]3)CCNC4=O)c2nc1NC1CCNCC1 [Example 53, 2-(2-methyl-3-(4-piperidinylamino)-5-quinoxalinyl)-1,5,6,7-tetrahydro-4H-pyrrolo[3,2-c]pyridin-4-one]	0.6	2.4	–	–
C[C@H]1NC(=O)c2cc(-c3cccc4cnc(NC5(C)CC5)nc34)[nH]c21 [Example 499, (6R)-6-methyl-2-(2-((1-methylcyclopropyl)amino)-8-quinazolinyl)-5,6-dihydropyrrolo[3,4-b]pyrrol-4(1H)-one]	1	1.6	–	–
CCCCNc1nc2c(-c3cc4c([nH]3)CCNC4=O)cccc2nc1C [Example 159, 2-(3-(butylamino)-2-methylquinoxalin-5-yl)-6,7-dihydro-1H-pyrrolo[3,2-c]pyridin-4(5H)-one]	3.1	1.7	–	–
Cc1nc2cccc(-c3cc4c([nH]3)CCNC4=O)c2nc1N[C@@H]1CCCN(C(=O)OC(C)(C)C)C1 [Example 52, tert-butyl (3R)-3-((3-methyl-8-(4-oxo-4,5,6,7-tetrahydro-1H-pyrrolo[3,2-c]pyridin-2-yl)-2-quinoxalinyl)amino)-1-piperidinecarboxylate]	149	403	–	–
C[C@H]1NC(=O)c2cc(-c3cccc4c(=O)n(C5CC5)c(NC5(C)CCC5)nc34)[nH]c21 [Example 496, (R)-3-cyclopropyl-8-(6-methyl-4-oxo-1,4,5,6-tetrahydropyrrolo[3,4-b]pyrrol-2-yl)-2-((1-methylcyclobutyl)amino)quinazolin-4(3H)-one]	0.2	0.2	–	–
C[C@H]1NC(=O)c2cc(-c3cccc4c(N)nc(NC(C)(C)C)nc34)[nH]c21 [Example 484, (6R)-2-(4-amino-2-(tert-butylamino)-8-quinazolinyl)-6-methyl-5,6-dihydropyrrolo[3,4-b]pyrrol-4(1H)-one]	3.98	7.66	–	–
C[C@H]1NC(=O)c2cc(-c3cccc4c(=O)n(C5CCC5)c(NC(C)(C)C)nc34)[nH]c21 [Example 507, (R)-2-(tert-Butylamino)-3-cyclobutyl-8-(6-methyl-4-oxo-1,4,5,6-tetrahydropyrrolo[3,4-b]pyrrol-2-yl)quinazolin-4(3H)-one]	0.3	0.6	–	–
Cc1nc2cccc(-c3cc4c([nH]3)C(C)CNC4=O)c2nc1NC1CC1 (single isomer, unassigned) [Example 161, 2-(3-(cyclopropylamino)-2-methylquinoxalin-5-yl)-7-methyl-6,7-dihydro-1H-pyrrolo[3,2-c]pyridin-4(5H)-one]	0.8	0.7	–	–
Cc1nc2cccc(-c3cc4c([nH]3)CCNC4=O)c2nc1NC(C)(C)CS(C)(=O)=O [Example 274, 2-(3-((1,1-dimethyl-2-(methylsulfonyl)ethyl)amino)-2-methyl-5-quinoxalinyl)-1,5,6,7-tetrahydro-4H-pyrrolo[3,2-c]pyridin-4-one]	44.4	39.5	–	–
Cc1nc2cccc(-c3cc4c([nH]3)CCNC4=O)c2nc1N[C@@H]1CCNC1 [Example 61, 2-(2-methyl-3-((3R)-3-pyrrolidinylamino)-5-quinoxalinyl)-1,5,6,7-tetrahydro-4H-pyrrolo[3,2-c]pyridin-4-one]	6.1	26.4	–	–
Cc1nc2cccc(-c3cc4c([nH]3)CCNC4=O)c2nc1N[C@H]1C[C@@H](O)C1 [Example 439, 2-(3-((cis-3-Hydroxycyclobutyl)amino)-2-methylquinoxalin-5-yl)-6,7-dihydro-1H-pyrrolo[3,2-c]pyridin-4(5H)-one]	2.5	1.4	–	–
C[C@H]1NC(=O)c2cc(-c3cccc4c(=O)n(CCCS(C)(=O)=O)c(NC(C)(C)C)nc34)[nH]c21 [Example 508, (R)-2-(tert-butylamino)-8-(6-methyl-4-oxo-1,4,5,6-tetrahydropyrrolo[3,4-b]pyrrol-2-yl)-3-(3-(methylsulfonyl)propyl)quinazolin-4(3H)-one]	0.9	0.3	–	–
CC[C@H]1NC(=O)c2cc(-c3cccc4c(=O)n(C5CC5)c(NC(C)(C)C)nc34)[nH]c21 [Example 511, (R)-2-(tert-butylamino)-3-cyclopropyl-8-(6-ethyl-4-oxo-1,4,5,6-tetrahydropyrrolo[3,4-b]pyrrol-2-yl)quinazolin-4(3H)-one]	1	0.7	–	–
Cc1nc2cccc(-c3cc4c([nH]3)[C@@H](C)NC4=O)c2nc1N[C@H]1CCC[C@@H](NC(=O)[C@@H](CO)NC(=O)OC(C)(C)C)C1 [Example 491, tert-butyl((1R)-1-(hydroxymethyl)-2-(((1R,3S)-3-((3-methyl-8-((6R)-6-methyl-4-oxo-1,4,5,6-tetrahydropyrrolo[3,4-b]pyrrol-2-yl)-2-quinoxalinyl)amino)cyclohexyl)amino)-2-oxoethyl)carbamate]	20	10	–	–
CC(=O)N1CC[C@@H](Nc2nc3c(-c4cc5c([nH]4)CCNC5=O)cccc3nc2C)C1 [Example 64, 2-(3-(((3R)-1-acetyl-3-pyrrolidinyl)amino)-2-methyl-5-quinoxalinyl)-1,5,6,7-tetrahydro-4H-pyrrolo[3,2-c]pyridin-4-one]	25.9	34.5	–	–
Cc1nc2cccc(-c3cc4c([nH]3)CCNC4=O)c2nc1NC1CN(C)C1 [Example 243, 2-(2-methyl-3-((1-methyl-3-azetidinyl)amino)-5-quinoxalinyl)-1,5,6,7-tetrahydro-4H-pyrrolo[3,2-c]pyridin-4-one]	853	1050	–	–
CC(=O)N1CCC(Nc2nc3c(-c4cc5c([nH]4)CCNC5=O)cccc3nc2C)CC1 [Example 50, 2-(3-((1-acetyl-4-piperidinyl)amino)-2-methyl-5-quinoxalinyl)-1,5,6,7-tetrahydro-4H-pyrrolo[3,2-c]pyridin-4-one]	13.7	24.4	–	–
Cc1nc2cccc(-c3cc4c([nH]3)C(Cc3ccc(Cl)cc3)CNC4=O)c2nc1N (racemic) [Example 273, rac-2-(3-amino-2-methyl-5-quinoxalinyl)-7-(4-chlorobenzyl)-1,5,6,7-tetrahydro-4H-pyrrolo[3,2-c]pyridin-4-one]	39	19.1	–	–
Cc1nc2cccc(-c3cc4n(c3)C(CCO)CNC4=O)c2nc1NC(C)(C)C (racemic) [Example 235, (±)-7-(3-(tert-butylamino)-2-methyl-5-quinoxalinyl)-4-(2-hydroxyethyl)-3,4-dihydropyrrolo[1,2-a]pyrazin-1(2H)-one]	9.5	14.5	–	–
C[C@H]1NC(=O)c2cc(-c3cccc4c(=O)n(C)c(N[C@@H]5CCC[C@H](NC(=O)OC(C)(C)C)C5)nc34)[nH]c21 (racemic) [Example 509, (rac)-tert-butyl ((cis)-3-((3-methyl-8-((R)-6-methyl-4-oxo-1,4,5,6-tetrahydropyrrolo[3,4-b]pyrrol-2-yl)-4-oxo-3,4-dihydroquinazolin-2-yl)amino)cyclohexyl)carbamate]	14	15	–	–
CC#CCC1CNC(=O)c2cc(-c3cccc4nc(C)c(F)nc34)[nH]c21 (racemic) [Example 280, rac-7-(2-butyn-1-yl)-2-(3-fluoro-2-methyl-5-quinoxalinyl)-1,5,6,7-tetrahydro-4H-pyrrolo[3,2-c]pyridin-4-one]	838	706	–	–
Cc1nc2cccc(-c3cc4c(=O)[nH]cnc4[nH]3)c2nc1N [Example 262, 6-(3-amino-2-methylquinoxalin-5-yl)-3H-pyrrolo[2,3-d]pyrimidin-4(7H)-one]	18.9	21	–	–
Cc1nc2cccc(-c3cc4c([nH]3)CCNC4=O)c2nc1OCC(C)(C)C [Example 152, 2-(2-methyl-3-(neopentyloxy)quinoxalin-5-yl)-6,7-dihydro-1H-pyrrolo[3,2-c]pyridin-4(5H)-one]	54.2	44.7	–	–
CC[C@H]1NC(=O)c2cc(-c3cccc4c(=O)n(C)c(NC(C)(C)C)nc34)[nH]c21 [Example 505, (R)-2-(tert-butylamino)-8-(6-ethyl-4-oxo-1,4,5,6-tetrahydropyrrolo[3,4-b]pyrrol-2-yl)-3-methylquinazolin-4(3H)-one]	0.8	0.8	–	–
CC(=O)N1CCC[C@@H](Nc2nc3c(-c4cc5c([nH]4)CCNC5=O)cccc3nc2C)C1 [Example 241, 2-(3-(((3R)-1-acetyl-3-piperidinyl)amino)-2-methyl-5-quinoxalinyl)-1,5,6,7-tetrahydro-4H-pyrrolo[3,2-c]pyridin-4-one]	43.7	68.4	–	–
CC#CCC1CNC(=O)c2cc(-c3cccc4nc(C)c(NC(C)(C)C)nc34)[nH]c21 (racemic) [Example 278, rac-2-(3-(tert-butylamino)-2-methyl-5-quinoxalinyl)-7-(2-butyn-1-yl)-1,5,6,7-tetrahydro-4H-pyrrolo[3,2-c]pyridin-4-one]	3.1	10.5	–	–
CC(=O)N[C@@H]1CCC[C@H](Nc2nc3c(-c4cc5c([nH]4)[C@@H](C)NC5=O)cccc3nc2C)C1 [Example 486, N-((1R,3S)-3-((3-methyl-8-((6R)-6-methyl-4-oxo-1,4,5,6-tetrahydropyrrolo[3,4-b]pyrrol-2-yl)-2-quinoxalinyl)amino)cyclohexyl)acetamide]	1.73	2.38	–	–
